Test results: ChEMBL document CHEMBL1156785, “Discovery of 4-[(2S)-2-{[4-(4-chlorophenoxy)phenoxy]methyl}-1-pyrrolidinyl]butanoic acid (DG-051) as a novel leukotriene A4 hydrolase inhibitor of leukotriene B4 biosynthesis” (J Med Chem, 2010)

Legend:
[1] = Cmax in Sprague-Dawley rat at 10 mg/kg, iv; type: ADME, organism-based; set-up: dose 10 mg/kg, route intravenous; settings: in vivo
[2] = system: Rattus norvegicus; test: AUC (0 to infinity) in Sprague-Dawley rat at 10 mg/kg, iv; type: ADME, organism-based, Plasma; set-up: time infinity, dose 10 mg/kg, route intravenous; settings: in vivo
[3] = Metabolic stability in rat liver microsomes assessed as compound remaining after 30 mins; type: ADME, Microsome; settings: read-out: Stability
[4] = Volume of distribution in Sprague-Dawley rat at 10 mg/kg, iv; type: ADME, organism-based; set-up: dose 10 mg/kg, route intravenous; settings: in vivo
[5] = Half life in Sprague-Dawley rat at 10 mg/kg, po; type: ADME, organism-based; set-up: dose 10 mg/kg, route oral; settings: in vivo
[6] = Half life in mouse at 10 mg/kg, po; type: ADME, organism-based; set-up: dose 10 mg/kg, route oral; settings: in vivo
[7] = Volume of distribution in mouse at 10 mg/kg, iv; type: ADME, organism-based; set-up: dose 10 mg/kg, route intravenous; settings: in vivo
[8] = Oral bioavailability in mouse at 10 mg/kg; type: ADME, organism-based; settings: in vivo
[9] = Clearance in mouse at 10 mg/kg, iv; type: ADME, organism-based; set-up: dose 10 mg/kg, route intravenous; settings: in vivo
[10] = molecular target: T1, Leukotriene A-4 hydrolase (Homo sapiens, UniProt P09960)
T1 sequence (P09960 whole entry): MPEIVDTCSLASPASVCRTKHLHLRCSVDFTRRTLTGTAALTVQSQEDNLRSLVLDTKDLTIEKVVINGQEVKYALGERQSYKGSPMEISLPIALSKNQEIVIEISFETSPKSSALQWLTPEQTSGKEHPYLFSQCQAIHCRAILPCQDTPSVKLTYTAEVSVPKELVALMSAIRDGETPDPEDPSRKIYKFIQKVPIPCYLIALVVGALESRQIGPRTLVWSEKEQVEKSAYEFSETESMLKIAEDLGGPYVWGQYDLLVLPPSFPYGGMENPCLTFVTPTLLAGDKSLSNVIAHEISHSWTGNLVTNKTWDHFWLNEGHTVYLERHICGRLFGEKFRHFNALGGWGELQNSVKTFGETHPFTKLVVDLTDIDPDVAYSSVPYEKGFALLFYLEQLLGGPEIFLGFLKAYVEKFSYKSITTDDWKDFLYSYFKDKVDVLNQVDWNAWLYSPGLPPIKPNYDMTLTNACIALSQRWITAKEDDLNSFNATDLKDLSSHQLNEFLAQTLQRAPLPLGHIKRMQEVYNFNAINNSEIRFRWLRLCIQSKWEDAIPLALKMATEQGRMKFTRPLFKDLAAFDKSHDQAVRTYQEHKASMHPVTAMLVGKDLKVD
Description: Inhibition of human LTA4H hydrolysis assessed as inhibition of Ca2+ ionophore-stimulated LTB4 formation in human whole blood by ELISA

[11] = molecular target: T1, Leukotriene A-4 hydrolase; remark: listed apart in the source
Description: Inhibition of human recombinant LTA4H hydrolysis assessed as inhibition of LTB4 formation by LC-MS/MS

[12] = Cmax in mouse at 10 mg/kg, po; type: ADME, organism-based; set-up: dose 10 mg/kg, route oral; settings: in vivo
[13] = AUC (0 to infinity) in mouse at 10 mg/kg, po; type: ADME, organism-based; set-up: time infinity, dose 10 mg/kg, route oral; settings: plasma
[14] = Half life in monkey at 10 mg/kg, po; type: ADME, organism-based, Macaca mulatta; set-up: dose 10 mg/kg, route oral; settings: rhesus monkey, in vivo
[15] = AUC (0 to infinity) in monkey at 10 mg/kg, po; type: ADME, organism-based, Macaca mulatta; set-up: time infinity, dose 10 mg/kg, route oral; settings: rhesus monkey, plasma
[16] = molecular target: CYP2C19 (Homo sapiens, UniProt P33261); test: Inhibition of human CYP2C19 at 10 uM; type: ADME
[17] = molecular target: Cytochrome P450 2D6 (Homo sapiens, UniProt P10635); test: Inhibition of CYP2D6; type: ADME
[18] = molecular target: Aminopeptidase N (Homo sapiens) (UniProt P15144); test: Inhibition of APN at 10 uM
[19] = Oral bioavailability in Sprague-Dawley rat at 10 mg/kg; type: ADME, organism-based; settings: in vivo
[20] = molecular target: Voltage-gated inwardly rectifying potassium channel KCNH2 (Homo sapiens, UniProt Q12809); test: Inhibition of human ERG channel
[21] = molecular target: CYP3A4 (Homo sapiens, UniProt P08684); test: Inhibition of human CYP3A4 at 10 uM; type: ADME
[22] = Half life in dog at 10 mg/kg, po; type: ADME, organism-based, Canis lupus familiaris; set-up: dose 10 mg/kg, route oral; settings: in vivo
[23] = molecular target: Xaa-Pro aminopeptidase 1 (Homo sapiens) (UniProt Q9NQW7); test: Inhibition of APP1 at 10 uM
[24] = Clearance in Sprague-Dawley rat at 10 mg/kg, iv; type: ADME, organism-based; set-up: dose 10 mg/kg, route intravenous; settings: in vivo
[25] = Clearance in dog at 10 mg/kg, iv; type: ADME, organism-based, Canis lupus familiaris; set-up: dose 10 mg/kg, route intravenous; settings: in vivo
[26] = molecular target: Glutamyl aminopeptidase (Homo sapiens) (UniProt Q07075); test: Inhibition of APA at 10 uM
[27] = AUC (0 to infinity) in Sprague-Dawley rat at 10 mg/kg, po; type: ADME, organism-based; set-up: time infinity, dose 10 mg/kg, route oral; settings: plasma
[28] = Volume of distribution in monkey at 10 mg/kg, iv; type: ADME, organism-based, Macaca mulatta; set-up: dose 10 mg/kg, route intravenous; settings: rhesus monkey, in vivo
[29] = Cmax in monkey at 10 mg/kg, po; type: ADME, organism-based, Macaca mulatta; set-up: dose 10 mg/kg, route oral; settings: rhesus monkey, in vivo
[30] = Clearance in monkey at 10 mg/kg, iv; type: ADME, organism-based, Macaca mulatta; set-up: dose 10 mg/kg, route intravenous; settings: rhesus monkey, in vivo
[31] = molecular target: T2, CYP1A2 (Homo sapiens, UniProt P05177); test: Inhibition of human CYP1A2 at 10 uM; type: ADME
T2 sequence (P05177 whole entry): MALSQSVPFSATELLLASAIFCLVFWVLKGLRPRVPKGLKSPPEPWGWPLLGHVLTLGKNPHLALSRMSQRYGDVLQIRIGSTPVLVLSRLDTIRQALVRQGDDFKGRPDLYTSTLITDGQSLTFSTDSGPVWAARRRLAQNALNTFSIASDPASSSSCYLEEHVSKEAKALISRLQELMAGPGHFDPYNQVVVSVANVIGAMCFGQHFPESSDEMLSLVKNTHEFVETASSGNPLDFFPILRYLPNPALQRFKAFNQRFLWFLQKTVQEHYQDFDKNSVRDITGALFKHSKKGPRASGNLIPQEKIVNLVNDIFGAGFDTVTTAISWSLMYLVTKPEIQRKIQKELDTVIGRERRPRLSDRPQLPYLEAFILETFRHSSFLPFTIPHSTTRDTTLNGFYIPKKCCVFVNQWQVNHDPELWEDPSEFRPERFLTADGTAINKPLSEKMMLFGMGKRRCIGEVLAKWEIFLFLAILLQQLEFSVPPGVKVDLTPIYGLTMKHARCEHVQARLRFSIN

[32] = Aqueous solubility at pH 6.18; type: physicochemical; settings: buffer
[33] = molecular target: Endoplasmic reticulum aminopeptidase 1 (Homo sapiens) (UniProt Q9NZ08); test: Inhibition of PILS at 10 uM
[34] = system: Rhesus monkey; test: Oral bioavailability in monkey at 10 mg/kg; type: ADME, organism-based, Macaca mulatta; settings: in vivo
[35] = Volume of distribution in dog at 10 mg/kg, iv; type: ADME, organism-based, Canis lupus familiaris; set-up: dose 10 mg/kg, route intravenous; settings: in vivo
[36] = Cmax in dog at 10 mg/kg, po; type: ADME, organism-based, Canis lupus familiaris; set-up: dose 10 mg/kg, route oral; settings: in vivo
[37] = molecular target: Endoplasmic reticulum aminopeptidase 2 (Homo sapiens) (UniProt Q6P179); test: Inhibition of LRAP at 10 uM
[38] = Cmax in Sprague-Dawley rat at 10 mg/kg, po; type: ADME, organism-based; set-up: dose 10 mg/kg, route oral; settings: in vivo
[39] = AUC (0 to infinity) in dog at 10 mg/kg, po; type: ADME, organism-based, Canis lupus familiaris; set-up: time infinity, dose 10 mg/kg, route oral; settings: plasma
[40] = molecular target: CYP2C9 (Homo sapiens, UniProt P11712); test: Inhibition of human CYP2C9 at 10 uM; type: ADME
CYP2C9, sequence (P11712 whole entry): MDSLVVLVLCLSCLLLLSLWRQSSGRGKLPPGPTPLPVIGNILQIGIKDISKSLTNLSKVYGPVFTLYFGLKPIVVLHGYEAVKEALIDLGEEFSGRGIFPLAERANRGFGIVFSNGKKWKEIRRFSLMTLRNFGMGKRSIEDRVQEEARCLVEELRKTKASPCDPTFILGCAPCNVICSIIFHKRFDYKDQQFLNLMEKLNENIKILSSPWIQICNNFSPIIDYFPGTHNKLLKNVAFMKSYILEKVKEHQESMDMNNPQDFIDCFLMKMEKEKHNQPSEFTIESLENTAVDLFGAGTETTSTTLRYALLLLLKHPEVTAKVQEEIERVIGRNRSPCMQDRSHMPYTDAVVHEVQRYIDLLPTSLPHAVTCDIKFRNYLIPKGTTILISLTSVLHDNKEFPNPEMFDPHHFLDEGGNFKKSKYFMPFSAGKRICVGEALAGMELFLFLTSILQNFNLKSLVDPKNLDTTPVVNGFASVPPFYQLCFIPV

Endoplasmic reticulum aminopeptidase 1 (Homo sapiens), sequence (Q9NZ08 whole entry): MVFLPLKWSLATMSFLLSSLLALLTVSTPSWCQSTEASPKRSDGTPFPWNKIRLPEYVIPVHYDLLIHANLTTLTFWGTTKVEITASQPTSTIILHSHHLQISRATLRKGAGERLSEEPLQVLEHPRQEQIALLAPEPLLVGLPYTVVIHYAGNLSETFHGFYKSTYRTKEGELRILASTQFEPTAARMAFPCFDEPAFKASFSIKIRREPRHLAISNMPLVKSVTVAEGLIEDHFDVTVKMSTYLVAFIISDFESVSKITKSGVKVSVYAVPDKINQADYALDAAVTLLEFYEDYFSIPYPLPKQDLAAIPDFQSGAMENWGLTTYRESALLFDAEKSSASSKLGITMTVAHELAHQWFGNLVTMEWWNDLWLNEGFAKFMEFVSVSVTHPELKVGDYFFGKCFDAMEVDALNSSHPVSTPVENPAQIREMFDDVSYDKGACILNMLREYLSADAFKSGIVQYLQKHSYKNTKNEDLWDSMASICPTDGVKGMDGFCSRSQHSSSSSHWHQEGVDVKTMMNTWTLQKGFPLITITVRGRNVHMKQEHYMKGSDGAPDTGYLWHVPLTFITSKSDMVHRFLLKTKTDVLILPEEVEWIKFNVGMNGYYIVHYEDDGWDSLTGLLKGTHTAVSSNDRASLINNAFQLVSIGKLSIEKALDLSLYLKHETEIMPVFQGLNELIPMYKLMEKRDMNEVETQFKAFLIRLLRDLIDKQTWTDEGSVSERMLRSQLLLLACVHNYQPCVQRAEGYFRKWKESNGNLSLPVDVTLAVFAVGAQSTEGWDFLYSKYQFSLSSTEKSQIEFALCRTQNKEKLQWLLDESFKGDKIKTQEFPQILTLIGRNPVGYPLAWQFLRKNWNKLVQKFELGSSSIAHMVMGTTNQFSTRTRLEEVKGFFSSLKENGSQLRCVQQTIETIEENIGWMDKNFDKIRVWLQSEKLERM
Aminopeptidase N (Homo sapiens), sequence (P15144 whole entry): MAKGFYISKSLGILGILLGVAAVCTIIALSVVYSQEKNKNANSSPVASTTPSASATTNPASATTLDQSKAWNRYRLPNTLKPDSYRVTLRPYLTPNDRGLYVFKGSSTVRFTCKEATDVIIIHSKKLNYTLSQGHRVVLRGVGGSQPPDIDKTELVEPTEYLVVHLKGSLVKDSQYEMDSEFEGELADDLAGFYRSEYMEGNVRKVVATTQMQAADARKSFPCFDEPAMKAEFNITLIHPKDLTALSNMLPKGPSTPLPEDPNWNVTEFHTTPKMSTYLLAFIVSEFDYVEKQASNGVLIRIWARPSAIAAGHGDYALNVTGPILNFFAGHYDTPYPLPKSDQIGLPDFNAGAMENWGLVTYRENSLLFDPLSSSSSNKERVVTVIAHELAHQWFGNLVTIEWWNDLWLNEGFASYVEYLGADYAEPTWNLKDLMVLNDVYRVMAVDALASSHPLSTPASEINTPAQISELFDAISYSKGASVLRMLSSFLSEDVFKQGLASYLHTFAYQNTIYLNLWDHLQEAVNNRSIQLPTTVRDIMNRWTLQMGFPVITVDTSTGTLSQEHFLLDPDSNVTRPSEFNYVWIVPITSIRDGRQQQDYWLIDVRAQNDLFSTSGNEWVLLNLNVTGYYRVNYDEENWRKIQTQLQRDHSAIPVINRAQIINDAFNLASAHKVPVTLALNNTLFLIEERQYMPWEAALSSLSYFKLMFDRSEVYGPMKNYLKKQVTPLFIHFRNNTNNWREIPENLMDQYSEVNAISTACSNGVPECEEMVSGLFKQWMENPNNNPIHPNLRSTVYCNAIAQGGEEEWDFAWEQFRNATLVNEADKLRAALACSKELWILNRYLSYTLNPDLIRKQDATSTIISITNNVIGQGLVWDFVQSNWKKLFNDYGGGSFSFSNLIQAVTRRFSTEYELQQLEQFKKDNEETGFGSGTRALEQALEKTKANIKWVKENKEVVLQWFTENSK
Voltage-gated inwardly rectifying potassium channel KCNH2, sequence (Q12809 whole entry): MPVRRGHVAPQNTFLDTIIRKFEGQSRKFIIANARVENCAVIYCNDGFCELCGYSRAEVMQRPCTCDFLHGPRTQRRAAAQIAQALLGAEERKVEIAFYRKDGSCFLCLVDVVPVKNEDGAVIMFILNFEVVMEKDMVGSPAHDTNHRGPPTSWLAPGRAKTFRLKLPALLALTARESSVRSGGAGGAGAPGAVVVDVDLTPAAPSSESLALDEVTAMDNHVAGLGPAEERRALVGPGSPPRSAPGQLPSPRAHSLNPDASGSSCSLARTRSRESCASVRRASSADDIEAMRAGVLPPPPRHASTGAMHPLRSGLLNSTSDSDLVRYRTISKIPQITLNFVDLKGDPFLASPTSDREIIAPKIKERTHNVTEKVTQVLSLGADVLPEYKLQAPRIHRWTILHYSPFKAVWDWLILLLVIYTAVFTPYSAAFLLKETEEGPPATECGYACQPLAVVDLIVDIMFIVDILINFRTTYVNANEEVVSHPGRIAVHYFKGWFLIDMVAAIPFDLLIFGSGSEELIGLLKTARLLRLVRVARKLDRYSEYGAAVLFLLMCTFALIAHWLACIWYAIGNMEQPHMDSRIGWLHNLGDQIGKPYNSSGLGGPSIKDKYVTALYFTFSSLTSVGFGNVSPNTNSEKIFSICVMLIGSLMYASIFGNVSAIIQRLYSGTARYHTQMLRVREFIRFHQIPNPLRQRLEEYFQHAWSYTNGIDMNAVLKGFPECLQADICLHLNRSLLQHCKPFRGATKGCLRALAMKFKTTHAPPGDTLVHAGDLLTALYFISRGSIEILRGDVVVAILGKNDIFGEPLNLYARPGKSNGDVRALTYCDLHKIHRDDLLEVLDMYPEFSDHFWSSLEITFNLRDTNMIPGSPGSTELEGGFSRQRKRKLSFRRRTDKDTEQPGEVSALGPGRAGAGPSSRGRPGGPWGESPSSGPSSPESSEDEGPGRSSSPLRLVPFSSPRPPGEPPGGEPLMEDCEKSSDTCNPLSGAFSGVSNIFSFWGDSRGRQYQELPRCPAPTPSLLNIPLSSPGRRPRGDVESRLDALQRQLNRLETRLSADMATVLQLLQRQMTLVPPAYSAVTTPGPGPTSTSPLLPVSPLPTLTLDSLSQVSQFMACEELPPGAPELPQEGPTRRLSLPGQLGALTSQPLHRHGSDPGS
Endoplasmic reticulum aminopeptidase 2 (Homo sapiens), sequence (Q6P179 whole entry): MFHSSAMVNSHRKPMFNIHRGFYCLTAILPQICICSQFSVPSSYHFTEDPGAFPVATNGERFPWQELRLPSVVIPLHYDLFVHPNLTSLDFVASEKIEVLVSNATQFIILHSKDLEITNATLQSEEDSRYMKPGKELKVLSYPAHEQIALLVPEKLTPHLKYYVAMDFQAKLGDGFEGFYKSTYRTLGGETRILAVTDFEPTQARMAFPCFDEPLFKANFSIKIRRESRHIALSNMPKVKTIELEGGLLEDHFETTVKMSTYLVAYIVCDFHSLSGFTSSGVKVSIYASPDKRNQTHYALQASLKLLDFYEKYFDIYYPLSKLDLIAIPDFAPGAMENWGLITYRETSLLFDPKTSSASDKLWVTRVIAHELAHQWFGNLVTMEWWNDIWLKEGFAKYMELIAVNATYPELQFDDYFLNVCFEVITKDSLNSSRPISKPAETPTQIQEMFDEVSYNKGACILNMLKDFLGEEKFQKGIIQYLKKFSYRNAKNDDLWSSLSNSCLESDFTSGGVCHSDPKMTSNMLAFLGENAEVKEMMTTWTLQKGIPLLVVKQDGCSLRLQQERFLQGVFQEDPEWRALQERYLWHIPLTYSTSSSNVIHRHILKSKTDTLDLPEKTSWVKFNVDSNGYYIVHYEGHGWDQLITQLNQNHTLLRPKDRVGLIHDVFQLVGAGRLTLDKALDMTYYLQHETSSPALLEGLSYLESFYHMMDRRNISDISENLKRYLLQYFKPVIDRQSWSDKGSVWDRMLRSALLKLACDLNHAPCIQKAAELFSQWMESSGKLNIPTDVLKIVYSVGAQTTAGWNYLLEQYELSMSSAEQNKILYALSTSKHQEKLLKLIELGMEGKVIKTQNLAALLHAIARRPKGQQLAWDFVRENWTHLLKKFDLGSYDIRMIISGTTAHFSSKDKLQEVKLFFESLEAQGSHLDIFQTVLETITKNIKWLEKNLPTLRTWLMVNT
CYP2C19, sequence (P33261 whole entry): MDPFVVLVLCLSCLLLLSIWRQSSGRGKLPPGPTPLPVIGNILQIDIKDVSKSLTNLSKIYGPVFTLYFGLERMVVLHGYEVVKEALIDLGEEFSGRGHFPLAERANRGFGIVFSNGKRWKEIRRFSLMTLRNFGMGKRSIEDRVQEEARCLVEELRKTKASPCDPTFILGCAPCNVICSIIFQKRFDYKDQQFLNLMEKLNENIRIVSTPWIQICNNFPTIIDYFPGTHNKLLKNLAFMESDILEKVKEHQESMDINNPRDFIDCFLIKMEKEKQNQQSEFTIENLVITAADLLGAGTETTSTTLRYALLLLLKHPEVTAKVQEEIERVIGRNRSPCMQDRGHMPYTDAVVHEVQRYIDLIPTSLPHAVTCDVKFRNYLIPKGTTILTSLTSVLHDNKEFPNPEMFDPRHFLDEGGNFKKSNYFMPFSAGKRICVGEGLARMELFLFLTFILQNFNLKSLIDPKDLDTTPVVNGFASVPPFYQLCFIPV

## c1ccc(Cc2ccc(OC[C@H]3CCCN3)cc2)cc1
[1]
  Cmax: 1.46 µM
[2]
  AUC: 471 ng·h/mL
[3]
  remaining at 0.5 h: 10.5%
[4]
  Vd: 6.12 L/kg
[5]
  half-life: 0.67 h

## Clc1ccc(Oc2ccc(OC[C@H]3CCCN3)cc2)cc1
[6]
  half-life: 3.59 h
[7]
  Vd: 6.32 L/kg
[8]
  bioavailability: 85%
[9]
  clearance: 61 mL/min/kg
[10]
  IC50: 533 nM
[3]
  remaining at 0.5 h: 86.6%
[11]
  IC50: 30 nM
[12]
  Cmax: 1.02 µM
[13]
  AUC(0-inf): 2360 ng·h/mL

## O=C(O)CCCN1CCC[C@H]1COc1ccc(Oc2ccc(Cl)cc2)cc1
[14]
  half-life: 5.54 h
[15]
  AUC(0-inf): 52400 ng·h/mL
[16]
  inhibition at 10 µM: < 50%
[17]
  inhibition (INH): < 50%
[18]
  inhibition: > 50%
[19]
  bioavailability: 87%
[20]
  inhibition (INH): > 50%
[21]
  inhibition at 10 µM: < 50%
[22]
  half-life: 4.02 h
[23]
  inhibition: > 50%
[24]
  clearance: 11 mL/min/kg
[25]
  clearance: 7.6 mL/min/kg
[26]
  inhibition: > 50%
[27]
  AUC(0-inf): 13000 ng·h/mL
[28]
  Vd: 2.07 L/kg
[29]
  Cmax: 18.9 µM
[30]
  clearance: 6 mL/min/kg
[31]
  inhibition at 10 µM: < 50%
[32]
  solubility: > 30 mg/mL
[3]
  remaining at 0.5 h: 95.2%
[4]
  Vd: 2.35 L/kg
[33]
  inhibition: > 50%
[34]
  F: 186%
[35]
  Vd: 1.56 L/kg
[36]
  Cmax: 19.3 µM
[37]
  inhibition: > 50%
[38]
  Cmax: 4.8 µM
[5]
  half-life: 2.57 h
[39]
  AUC(0-inf): 56000 ng·h/mL
[40]
  inhibition at 10 µM: < 50%

## c1ccc(Cc2ccc(OCCc3ccncc3)cc2)cc1
[11]
  IC50: 8700 nM

## Ic1ccc(Oc2ccc(N3CCNCC3)cc2)cc1
[11]
  IC50: 340 nM
